Experimental data: patent US20130261077A1 (priority 2012, published 2013)

What was measured:
FimH-CRD [1] = biological target: T1, FimH-CRD (Escherichia coli, UniProt P08191); assay: Competitive binding assay by fluorescence polarization, assay 1 (compounds prepared by manual serial dilution)
T1 construct: The first 177 amino acids of the FimH protein; thrombin tag (printed as 'fusion protein with thrombin') (cleaved yes); made in house; host or cells: bacteria (pET21b plasmid)
Method in brief: (§1)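 Compounds at 0.4 nM–75 μM final (12 points, 3-fold steps, duplicate) compete with a 5 nM Alexa 647 mannoside probe for 60 nM FimH-CRD; 5 h room-temperature incubation in pH 7.0 Tris buffer with 2.5% DMSO, FP read-out, Kd from fitted curves. Assay 1 uses manual dilution, assay 2 robot-made frozen/thawed plates.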

FimH-CRD [2] = biological target: T1, FimH-CRD; assay: Competitive binding assay by fluorescence polarization, assay 2 (compounds prepared by robotics, plates frozen and thawed)
Method in brief: as §1

T1 sequence (P08191 22-177): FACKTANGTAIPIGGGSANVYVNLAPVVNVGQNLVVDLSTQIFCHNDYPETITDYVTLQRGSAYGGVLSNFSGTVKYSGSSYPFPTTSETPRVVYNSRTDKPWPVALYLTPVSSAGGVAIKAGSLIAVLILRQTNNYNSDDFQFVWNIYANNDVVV

SMILES | IC50 (FimH-CRD [1]) [nM] | Kd (FimH-CRD [1]) [nM] | Kd (FimH-CRD [2]) [nM]
Cn1cnc2ccc(-c3cccc([C@H]4O[C@H](CO)[C@@H](O)[C@H](O)[C@@H]4O)c3)cc21 [Compound 4, (2R,3S,4R,5S,6R)-2-(hydroxymethyl)-6-[3-(3-methylbenzimidazol-5-yl)phenyl]tetrahydropyran-3,4,5-triol] | 19 | 5.1 ± 0.1 | 13.6 ± 6.1
OC[C@H]1O[C@H](c2cccc(-c3cncnc3)c2)[C@@H](O)[C@@H](O)[C@@H]1O [Compound 10, (2R,3S,4R,5S,6R)-2-(hydroxymethyl)-6-(3-pyrimidin-5-ylphenyl)tetrahydropyran-3,4,5-triol] | 99 | 13.4 ± 6.6 | 10.1 ± 0.6
OC[C@H]1O[C@H](c2cccc(-c3cc4ccccc4s3)c2)[C@@H](O)[C@@H](O)[C@@H]1O [Compound 12, (2R,3S,4R,5S,6R)-2-[3-(benzothiophen-2-yl)phenyl]-6-(hydroxymethyl)tetrahydropyran-3,4,5-triol] | 67 | 9.2 ± 4.4 | 11.7 ± 6.1
N#Cc1ccc(-c2cccc([C@H]3O[C@H](CO)[C@@H](O)[C@H](O)[C@@H]3O)c2)cc1 [Compound 22, 3′-((2R,3S,4R,5S,6R)-3,4,5-trihydroxy-6-(hydroxymethyl)tetrahydro-2H-pyran-2-yl)-[1,1′-biphenyl]-4-carbonitrile] | 49 | 6.6 ± 0.8 | 14.2 ± 11.1
CNC(=O)c1cccc([C@H]2O[C@H](CO)[C@@H](O)[C@H](O)[C@@H]2O)c1 [Compound 35, N-methyl-3-((2R,3S,4R,5S,6R)-3,4,5-trihydroxy-6-(hydroxymethyl)tetrahydro-2H-pyran-2-yl)benzamide] | 172 | 56.2 ± 4.9 | 113
OC[C@H]1OC(c2cccc(OCCC3CCCCC3)c2)[C@@H](O)[C@@H](O)[C@@H]1O (stereo partly drawn) [Compound 216] | – | – | 16.4 ± 5.2
OC[C@H]1OC(c2cccc(OCCCc3ccccc3)c2)[C@@H](O)[C@@H](O)[C@@H]1O (stereo partly drawn) [Compound 217] | – | – | 12.1 ± 7.6
O=C(COc1cccc(C2O[C@H](CO)[C@@H](O)[C@H](O)[C@@H]2O)c1)C1CCCCC1 (stereo partly drawn) [Compound 218] | – | – | 8.7 ± 1.4
O=C(NCCCOc1cccc(C2O[C@H](CO)[C@@H](O)[C@H](O)[C@@H]2O)c1)c1ccccc1 (stereo partly drawn) [Compound 219] | – | – | 16.3 ± 5.1
OC[C@H]1OC(c2cccc(OCc3ccccc3-c3ccccc3)c2)[C@@H](O)[C@@H](O)[C@@H]1O (stereo partly drawn) [Compound 220] | – | – | 16.6 ± 4.4
Cc1nn(-c2ccccc2)nc1COc1cccc(C2O[C@H](CO)[C@@H](O)[C@H](O)[C@@H]2O)c1 (stereo partly drawn) [Compound 221] | – | – | 8.2 ± 0.5
OC[C@H]1OC(c2cccc(OCc3ccccc3)c2)[C@@H](O)[C@@H](O)[C@@H]1O (stereo partly drawn) [Compound 222] | – | – | 40.7 ± 1.2
COC(=O)c1cccc(COc2cccc(C3O[C@H](CO)[C@@H](O)[C@H](O)[C@@H]3O)c2)c1 (stereo partly drawn) [Compound 223] | – | – | 23.2 ± 1.6
CNC(=O)c1ccc(COc2cccc(C3O[C@H](CO)[C@@H](O)[C@H](O)[C@@H]3O)c2)cc1 (stereo partly drawn) [Compound 225] | – | – | 34.5 ± 12.3
OC[C@H]1OC(c2cccc(OCc3cc(Cl)cc(Cl)c3)c2)[C@@H](O)[C@@H](O)[C@@H]1O (stereo partly drawn) [Compound 226] | – | – | 32.1 ± 8.9
CNC(=O)c1cccc(COc2cccc([C@H]3O[C@H](CO)[C@@H](O)[C@H](O)[C@@H]3O)c2)c1 [Compound 227, N-methyl-3-[[3-[(2R,3S,4R,5S,6R)-3,4,5-trihydroxy-6-(hydroxymethyl)tetrahydropyran-2-yl]phenoxy]methyl]benzamide] | – | – | 37.1 ± 15.4
Cc1cccc(COc2ccc(C3O[C@H](CO)[C@@H](O)[C@H](O)[C@@H]3O)cc2)n1 (stereo partly drawn) [Compound 228] | – | – | 9.2 ± 0.04
CCC#CCOc1ccc(C2O[C@H](CO)[C@@H](O)[C@H](O)[C@@H]2O)cc1 (stereo partly drawn) [Compound 229] | – | – | 33.1 ± 4
N#CCCCOc1ccc(C2O[C@H](CO)[C@@H](O)[C@H](O)[C@@H]2O)cc1 (stereo partly drawn) [Compound 230] | – | – | 13.9 ± 3.6
CC[C@H](C)COc1ccc(C2O[C@H](CO)[C@@H](O)[C@H](O)[C@@H]2O)cc1 (stereo partly drawn) [Compound 231] | – | – | 8.9 ± 1.4
CC(C)CCOc1ccc(C2O[C@H](CO)[C@@H](O)[C@H](O)[C@@H]2O)cc1 (stereo partly drawn) [Compound 232] | – | – | 8.5 ± 4.2
COCCCOc1ccc(C2O[C@H](CO)[C@@H](O)[C@H](O)[C@@H]2O)cc1 (stereo partly drawn) [Compound 233] | – | – | 10.3 ± 3.9
OC[C@H]1OC(c2ccc(OCCCCF)cc2)[C@@H](O)[C@@H](O)[C@@H]1O (stereo partly drawn) [Compound 234] | – | – | 11.4 ± 4.5
O=C(COc1ccc(C2O[C@H](CO)[C@@H](O)[C@H](O)[C@@H]2O)cc1)C1CC1 (stereo partly drawn) [Compound 235] | – | – | 14.1 ± 0.3
OC[C@H]1OC(c2ccc(OCC3CCOCC3)cc2)[C@@H](O)[C@@H](O)[C@@H]1O (stereo partly drawn) [Compound 236] | – | – | 11.5 ± 4.6

SMILES | IC50 (FimH-CRD [1]) [nM] | Kd (FimH-CRD [1]) [nM] | Kd (FimH-CRD [2]) [nM]
OC[C@H]1OC(c2ccc(OCc3ccc(F)cc3)cc2)[C@@H](O)[C@@H](O)[C@@H]1O (stereo partly drawn) [Compound 237] | – | – | 7.9 ± 1.6
OC[C@H]1OC(c2ccc(OCCc3cccc(F)c3)cc2)[C@@H](O)[C@@H](O)[C@@H]1O (stereo partly drawn) [Compound 238] | – | – | 9.7
COc1ccc(CCOc2ccc(C3O[C@H](CO)[C@@H](O)[C@H](O)[C@@H]3O)cc2)cc1 (stereo partly drawn) [Compound 239] | – | – | 7.7 ± 0.05
OC[C@H]1OC(c2ccc(OCc3cccc4cccnc34)cc2)[C@@H](O)[C@@H](O)[C@@H]1O (stereo partly drawn) [Compound 240] | – | – | 7.6 ± 0.9
CC(C)(C)c1ccc(COc2ccc(C3O[C@H](CO)[C@@H](O)[C@H](O)[C@@H]3O)cc2)cc1 (stereo partly drawn) [Compound 241] | – | – | 10.2 ± 0.8
COc1ccccc1NC(=O)COc1ccc(C2O[C@H](CO)[C@@H](O)[C@H](O)[C@@H]2O)cc1 (stereo partly drawn) [Compound 242] | – | – | 21.5 ± 3.9
COC(=O)CCCOc1ccc(C2O[C@H](CO)[C@@H](O)[C@H](O)[C@@H]2O)cc1 (stereo partly drawn) [Compound 243] | – | – | 5.8
OC[C@H]1OC(c2ccc(OCc3ccc4ccccc4c3)cc2)[C@@H](O)[C@@H](O)[C@@H]1O (stereo partly drawn) [Compound 244] | – | – | 23.3 ± 1.1
OC[C@H]1OC(c2ccc(OCc3ccccc3)cc2)[C@@H](O)[C@@H](O)[C@@H]1O (stereo partly drawn) [Compound 245] | – | – | 22.8 ± 2.4
COC(=O)c1cccc(COc2ccc(C3O[C@H](CO)[C@@H](O)[C@H](O)[C@@H]3O)cc2)c1 (stereo partly drawn) [Compound 246] | – | – | 23.6 ± 5.5
O=C(O)c1cccc(COc2ccc(C3O[C@H](CO)[C@@H](O)[C@H](O)[C@@H]3O)cc2)c1 (stereo partly drawn) [Compound 247] | – | – | 32 ± 5.1
CNC(=O)c1ccc(COc2ccc(C3O[C@H](CO)[C@@H](O)[C@H](O)[C@@H]3O)cc2)cc1 (stereo partly drawn) [Compound 249] | – | – | 19.6 ± 10.2
OC[C@H]1OC(c2ccc(OCc3cc(Cl)cc(Cl)c3)cc2)[C@@H](O)[C@@H](O)[C@@H]1O (stereo partly drawn) [Compound 250] | – | – | 40.6 ± 23.4
OC[C@H]1OC(c2ccc(OCc3cccc4nonc34)cc2)[C@@H](O)[C@@H](O)[C@@H]1O (stereo partly drawn) [Compound 251] | – | – | 29.9 ± 13.9
OC[C@H]1O[C@H](c2cccc(Oc3ccncc3)c2)[C@@H](O)[C@@H](O)[C@@H]1O [Compound 252, (2R,3S,4R,5S,6R)-2-(hydroxymethyl)-6-[3-(4-pyridyloxy)phenyl]tetrahydropyran-3,4,5-triol] | – | – | 13.2 ± 2.2
OC[C@H]1O[C@H](c2cccc(Oc3nc4ccccc4s3)c2)[C@@H](O)[C@@H](O)[C@@H]1O [Compound 253, (2R,3S,4R,5S,6R)-2-[3-(1,3-benzothiazol-2-yloxy)phenyl]-6-(hydroxymethyl)tetrahydropyran-3,4,5-triol] | – | – | < 5
OC[C@H]1OC(c2cccc(Oc3ccnc4ccccc34)c2)[C@@H](O)[C@@H](O)[C@@H]1O (stereo partly drawn) [Compound 254] | – | – | 7.9
OC[C@H]1O[C@H](c2cccc(Oc3ncccn3)c2)[C@@H](O)[C@@H](O)[C@@H]1O [Compound 256, (2R,3S,4R,5S,6R)-2-(hydroxymethyl)-6-(3-pyrimidin-2-yloxyphenyl)tetrahydropyran-3,4,5-triol] | – | – | 67.6 ± 21.8
O=[N+]([O-])c1ccc(Oc2cccc([C@H]3O[C@H](CO)[C@@H](O)[C@H](O)[C@@H]3O)c2)cn1 [Compound 257, (2R,3S,4R,5S,6R)-2-(hydroxymethyl)-6-[3-[(6-nitro-3-pyridyl)oxy]phenyl]tetrahydropyran-3,4,5-triol] | – | – | 19.2 ± 6.3
Nc1ccc(Oc2cccc([C@H]3O[C@H](CO)[C@@H](O)[C@H](O)[C@@H]3O)c2)cn1 [Compound 258, (2R,3S,4R,5S,6R)-2-[3-[(6-amino-3-pyridyl)oxy]phenyl]-6-(hydroxymethyl)tetrahydropyran-3,4,5-triol] | – | – | 31.9 ± 6.3
OCc1cccc([C@H]2O[C@H](CO)[C@@H](O)[C@H](O)[C@@H]2O)c1 [Compound 260, (2R,3S,4R,5S,6R)-2-(hydroxymethyl)-6-[3-(hydroxymethyl)phenyl]tetrahydropyran-3,4,5-triol] | – | – | 125 ± 52.6
COC(=O)c1ccc(OCc2cccc([C@H]3O[C@H](CO)[C@@H](O)[C@H](O)[C@@H]3O)c2)cc1 [Compound 261, methyl 4-[[3-[(2R,3S,4R,5S,6R)-3,4,5-trihydroxy-6-(hydroxymethyl)tetrahydropyran-2-yl]phenyl]methoxy]benzoate] | – | – | 32.2 ± 8.1
OC[C@H]1O[C@H](c2cccc(COc3ccccc3)c2)[C@@H](O)[C@@H](O)[C@@H]1O [Compound 262, (2R,3S,4R,5S,6R)-2-(hydroxymethyl)-6-[3-(phenoxymethyl)phenyl]tetrahydropyran-3,4,5-triol] | – | – | 26.6 ± 11.4
OC[C@H]1O[C@H](c2cccc(COc3cc(Cl)cc(Cl)c3)c2)[C@@H](O)[C@@H](O)[C@@H]1O [Compound 263, (2R,3S,4R,5S,6R)-2-[3-[(3,5-dichlorophenoxy)methyl]phenyl]-6-(hydroxymethyl)tetrahydropyran-3,4,5-triol] | – | – | 22.3 ± 5
CNC(=O)c1ccc(OCc2cccc([C@H]3O[C@H](CO)[C@@H](O)[C@H](O)[C@@H]3O)c2)cc1 [Compound 264, N-methyl-4-[[3-[(2R,3S,4R,5S,6R)-3,4,5-trihydroxy-6-(hydroxymethyl)tetrahydropyran-2-yl]phenyl]methoxy]benzamide] | – | – | 30.8 ± 9.1
